The nature of the series: physchem. To be noted: 20 °C.

In patent US20240057603A1, “ISOCYCLOSERAM FORMULATION” (SYNGENTA CROP PROTECTION AG, priority 2020, published 2024) one finds solubility data, which are given here for one compound.

As a reminder, the solubility is the dissolved amount per volume that the medium holds. Read a low solubility as a poorly soluble substance.

Structures are written as SMILES. Where only a bound is given, the exact number is not on record here.

As for `CCN1OCC(NC(=O)c2ccc(C3=NOC(c4cc(Cl)c(F)c(Cl)c4)(C(F)(F)F)C3)cc2C)C1=O` (stereo not shown) [Isocycloseram], the solubility was below 5 µg/mL.
